Entries after “also recorded” stand apart in the source; their conditions may differ.
Legend:
CCR5 = CCR5 (Homo sapiens, UniProt P51681); conditions: Jiao 2018; cited from earlier work
[1] = test system: CCR5+ metastatic Triple Negative Breast Cancer (mTNBC); test: Phase Ib/II mTNBC study: tumor imaging scans; assay type: in vivo, human; conditions: Patient D, with carboplatin
Description: (§1) The primary objective of Phase 1b is to determine the safety, tolerability, and maximum tolerated dose (MTD) of PRO 140 in patients with TNBC, when combined with carboplatin to define a recommended Phase II dose of the combination. The primary objective of phase 2b is to evaluate the impact on progression-free survival (PFS) of the combination of PRO 140 and carboplatin in patients with CCR5+ TNBC previously treated with anthracyclines and taxanes in a neoadjuvant and adjuvant setting. For further investigational plan details please refer to section 5.3.5 in SNO01 (IND 141723).
(§2) Each treatment cycle consisted of 21 days. […] This treatment regimen was used for all subjects enrolled in the mTNBC study, unless otherwise indicated.
Scans were taken at the end of every two cycles (every 6 weeks). The subject had Scan 1 after six weeks, Scan 2 after 12 weeks, and Scan 3 after 18 weeks (Table 4).

[2] = test system: MDA-MB-231 cells expressing Luc2-eGFP (MDA-MB-231.pFLUG); test: Breast cancer tumor / lung metastasis model in mice, bioluminescence imaging; assay type: in vivo, female NCI Athymic NCr-nu/nu mice
Description: Each mouse received one million (10^6) MDA-MB-231 cells expressing Luc2-eGFP (called MDA-MB-231.pFLUG) through the tail vein. […] Treatment was started one day before the injection.
In vivo bio-luminescence imaging was performed following intraperitoneal injection with 100 μl of D-luciferin (30 mg/mL) to the control and treated groups. […] FIG. 1D is a plot of the percentage of mice with tumors.

[3] = Phase Ib/II mTNBC study: adverse events; assay type: in vivo; conditions: Patient D, weekly 350 mg leronlimab + carboplatin every three weeks, up to Cycle 6 Day 1 visit
Description: as §1, §2

[4] = test system: circulating tumor cells (CTC), epithelial mesenchymal transition cells (EMTs) and cancer-associated macrophage-like cells (CAMLs); test: Phase Ib/II mTNBC study: CTC, EMT and CAML counts in blood (LifeTrac Assay, CellSieve filtration); assay type: in vivo, human; conditions: for Number of CTCs (PD-L1) / Number of Apoptotic CTCs (CCR5) / Number of CAMLs (CCR5) / Number of CAMLs (PD-L1) / Number of CTCs (CCR5) / Number of EMTs (CCR5) / Number of EMTs (PD-L1) / CAML- Total / EMT-Total / Number of Apoptotic CTC (PD-L1) / CTC-Total: Patient D; for Number of CTCs (PD-L1): baseline 0; for Number of Apoptotic CTCs (CCR5) / Number of CAMLs (CCR5) / Number of CAMLs (PD-L1) / Number of CTCs (CCR5) / Number of EMTs (CCR5) / Number of EMTs (PD-L1): baseline 1; for CAML- Total / EMT-Total: baseline 2; for Number of Apoptotic CTC (PD-L1): baseline 3; for CTC-Total: baseline 5
Description: as §1, §2
The blood sample for circulating tumor cells (CTC) and cancer-associated macrophage-like cells (CAMLs) assessment was collected at baseline and subsequently at Day 1 of each treatment cycle to assess changes in CTCs and CAMLs after treatment and to perform correlative analysis between CCR5 expression and PD-L1 expression.
Creatv Microtech has developed a size-based technology and detection methodology (LifeTrac Assay) that enables the collection and characterization of all cancer-associated cells in the blood i.e., CTCs, epithelial mesenchymal transition cells (EMTs) and CAMLs [Adams Cytometry 2015, Adams RSC 2014]. The CellSieve™ filtration platform is used to capture CAMLs and CTCs.

HIV-1 = conditions: at concentrations that do not affect CCR5 chemokine receptor activity; Olson 1999, Trkola 2001; cited from earlier work
[5] = test system: metastatic HER2+ breast cancer; test: Single patient emergency use IND: CT/MRI imaging of metastases; assay type: in vivo, human; conditions: Patient A, 700 mg weekly
Description: This subject, Patient A, is a person with a diagnosis of metastatic breast cancer, stage IV. The subject previously received Taxotere/Herceptin/Pertuzumab as frontline therapy for metastatic HER2 positive breast cancer. They had partial response for their systemic disease, but then developed diffuse brain metastases (systemic disease stable). They completed whole-brain radiation therapy and continues on Herceptin and Pertuzumab. They have neuropathy and residual side effects from chemotherapy, which limits use of current second-line options due to concern for side effects.
Prior to enrolling in the trial, the patient had 18 identifiable tumor spots in the brain.

CTC and EMT = test: Single patient emergency use IND: CTC and EMT counts; assay type: in vivo, human; conditions: Patient A, 700 mg weekly, approximately ten weeks after initiation
Description: Approximately ten weeks following the initiation of treatment, the subject's CTC and EMT counts were measured, and zero CTCs and zero EMTs were identified. Lesion and nodule sizes were measured in the breast and liver of Patient A and metastases were also qualitatively described (FIG. 6). Protein expression levels of CCR5 (FIG. 7A) and PD-L1 (FIG. 7B) on individual CAMLs from Patient A were measured by flow cytometry and reported as Mean Fluorescence Intensity (MFI). CCR5 MFI (“CCR5 INT”) was calculated by subtracting background signal of a negative control sample from the experimental value. CAML size was also measured and reported in […].

Chain of CCR5 (P51681 whole entry): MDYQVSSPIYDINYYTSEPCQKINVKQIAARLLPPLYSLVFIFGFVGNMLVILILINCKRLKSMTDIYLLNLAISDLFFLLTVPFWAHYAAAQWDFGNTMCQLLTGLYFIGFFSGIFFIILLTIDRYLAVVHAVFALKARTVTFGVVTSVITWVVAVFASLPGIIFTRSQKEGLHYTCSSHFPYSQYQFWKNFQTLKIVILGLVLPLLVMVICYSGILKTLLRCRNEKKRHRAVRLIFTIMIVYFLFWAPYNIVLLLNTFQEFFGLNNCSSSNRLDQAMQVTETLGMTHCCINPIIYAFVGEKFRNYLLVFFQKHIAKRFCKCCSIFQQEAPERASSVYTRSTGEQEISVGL

COC[C@@H](c1ccc(C(F)(F)F)cc1)N1CCN(C2(C)CCN(C(=O)c3c(C)ncnc3C)CC2)C[C@@H]1C [vicriviroc]
Cell killing mediated by DNA-damaging chemotherapeutic agents (CCR5): dramatically enhanced

leronlimab: humanized monoclonal anti-CCR5 antibody, humanized version of the murine mAb PA14
New lung nodules ([1]; Scan 3): no new lung nodules found | New lymphadenopathy or metastatic disease on diagnostic CT chest, abdomen and pelvis ([1]; Scan 3): No new | Previously identified right hilar lymph node ([1]; Scan 3): resolved | Right lung metastasis maximum standardized uptake values (SUVs) ([1]; Scan 3, previously 15.3): values (SUVs) of 6.8 (previously | Decrease in size of target lesion ([1]; scan 3 vs previous 2.4×1.9): 20% | Tumor volume in a breast cancer tumor model ([2]; mouse, in vivo): significant reduction | Serious adverse events [3]: no serious adverse events had been reported | Detectable levels of CTC ([4]; Patient C (second subject), with carboplatin, after two weeks of treatment): no detectable levels | Reduction in EMT cells ([4]; Patient C, with carboplatin, after two weeks of treatment): 70% | CAML count ([4]; Patient C, with carboplatin, following at least two weeks of treatment, initial count 45): 30 | CCR5 expression on cancer-associated cells ([4]; Patient D (first patient), with carboplatin, approximately 11 weeks of treatment): large reductions | Detectable circulating tumor cells (CTC) or putative metastatic tumor cells in peripheral blood ([4]; Patient D (first subject), with carboplatin, following 16 weeks of treatment): no detectable | Number of CTCs (PD-L1) ([4]; with carboplatin, C1D1): 0 | Number of Apoptotic CTCs (CCR5) ([4]; with carboplatin, C1D1): 0 | Number of CAMLs (CCR5) ([4]; with carboplatin, C1D1): 0 | Number of CAMLs (PD-L1) ([4]; with carboplatin, C1D1): 1 | Number of CTCs (CCR5) ([4]; with carboplatin, C1D1): 0 | Number of EMTs (CCR5) ([4]; with carboplatin, C1D1): 1 | Number of EMTs (PD-L1) ([4]; with carboplatin, C1D1): 1 | CAML- Total ([4]; with carboplatin, C1D1): 1 | EMT-Total ([4]; with carboplatin, C1D1): 2 | Number of Apoptotic CTC (PD-L1) ([4]; with carboplatin, C1D1): 0 | CTC-Total ([4]; with carboplatin, C1D1): 0 | Number of CTCs (PD-L1) ([4]; with carboplatin, C2D1): 0 | Number of Apoptotic CTCs (CCR5) ([4]; with carboplatin, C2D1): 0 | Number of CAMLs (CCR5) ([4]; with carboplatin, C2D1): 1 | Number of CAMLs (PD-L1) ([4]; with carboplatin, C2D1): 2 | Number of CTCs (CCR5) ([4]; with carboplatin, C2D1): 0 | Number of EMTs (CCR5) ([4]; with carboplatin, C2D1): 0 | Number of EMTs (PD-L1) ([4]; with carboplatin, C2D1): 0 | CAML- Total ([4]; with carboplatin, C2D1): 3 | EMT-Total ([4]; with carboplatin, C2D1): 0 | Number of Apoptotic CTC (PD-L1) ([4]; with carboplatin, C2D1): 0 | CTC-Total ([4]; with carboplatin, C2D1): 0 | Number of CTCs (PD-L1) ([4]; with carboplatin, C3D1): 0 | Number of Apoptotic CTCs (CCR5) ([4]; with carboplatin, C3D1): 0 | Number of CAMLs (CCR5) ([4]; with carboplatin, C3D1): 3 | Number of CAMLs (PD-L1) ([4]; with carboplatin, C3D1): 1 | Number of CTCs (CCR5) ([4]; with carboplatin, C3D1): 0 | Number of EMTs (CCR5) ([4]; with carboplatin, C3D1): 0 | Number of EMTs (PD-L1) ([4]; with carboplatin, C3D1): 0 | Number of Apoptotic CTC (PD-L1) ([4]; with carboplatin, C3D1): 0 | Number of CTCs (PD-L1) ([4]; with carboplatin, C4D1): 0 | Number of Apoptotic CTCs (CCR5) ([4]; with carboplatin, C4D1): 0 | Number of CAMLs (CCR5) ([4]; with carboplatin, C4D1): 0 | Number of CAMLs (PD-L1) ([4]; with carboplatin, C4D1): 1 | Number of CTCs (CCR5) ([4]; with carboplatin, C4D1): 0 | Number of EMTs (CCR5) ([4]; with carboplatin, C4D1): 0 | Number of EMTs (PD-L1) ([4]; with carboplatin, C4D1): 0 | CAML- Total ([4]; with carboplatin, C4D1): 1 | EMT-Total ([4]; with carboplatin, C4D1): 0 | Number of Apoptotic CTC (PD-L1) ([4]; with carboplatin, C4D1): 0 | CTC-Total ([4]; with carboplatin, C4D1): 0 | Number of CTCs (PD-L1) ([4]; with carboplatin, C5D1): 0 | Number of Apoptotic CTCs (CCR5) ([4]; with carboplatin, C5D1): 0 | Number of CAMLs (CCR5) ([4]; with carboplatin, C5D1): 1 | Number of CAMLs (PD-L1) ([4]; with carboplatin, C5D1): 2 | Number of CTCs (CCR5) ([4]; with carboplatin, C5D1): 0 | Number of EMTs (CCR5) ([4]; with carboplatin, C5D1): 0 | Number of EMTs (PD-L1) ([4]; with carboplatin, C5D1): 0 | CAML- Total ([4]; with carboplatin, C5D1): 3 | EMT-Total ([4]; with carboplatin, C5D1): 0 | Number of Apoptotic CTC (PD-L1) ([4]; with carboplatin, C5D1): 0 | CTC-Total ([4]; with carboplatin, C5D1): 0 | CAML- Total ([4]; with carboplatin, C6D1): 8 | EMT-Total ([4]; with carboplatin, C6D1): 0 | CTC-Total ([4]; with carboplatin, C6D1): 0 | Detectable circulating tumor cells (CTCs) or putative metastatic tumor cells in peripheral blood ([4]; first patient of Phase 1b/2 trial, at 11 weeks of treatment): no detectable | Decrease of total CTC+EMT counts ([4]; third subject, with carboplatin, first two weeks of treatment): 75% | HIV-1 entry and replication (HIV-1): potently inhibits | New metastatic spots in the liver, lung and brain (CT scan) ([5]; approximately four weeks after initial treatment): no sign of new metastatic spots | Reduction in tumor volume of the largest brain tumor ([5]; approximately two months): 56% | New metastasis in the brain ([5]; approximately two months after initial treatment): no new metastasis was detectable | Identifiable lesions in the brain ([5]; approximately two months, 18 identifiable tumor spots before): three | CTC count (CTC and EMT): zero | EMT count (CTC and EMT): zero

maraviroc
Lung metastasis / homing of breast cancer cells to the lungs in mouse model ([2]; FIG. 1): block homing of breast cancer cells to the lungs; also recorded: inhibition of lung metastasis; also recorded: effectively blocked lung metastases | Cell killing mediated by DNA-damaging chemotherapeutic agents (CCR5): dramatically enhanced

— patent publication US20210214448A1, “CCR5 BINDING AGENT FOR THE TREATMENT OF CCR5 POSITIVE METASTATIC CANCER” (CytoDyn Inc., priority 2020, published 2021)
